# Where two headings read alike, the source gives them in different places.
# Tests used:
# [1] = test system: Candida albicans (ATCC 10231); test: Antimicrobial efficacy (stand-alone log reduction), C. albicans; type: cell-based; conditions: alexidine 2.6 ppm, PAPB 0.0; 60 min
# Method: (§1) This Example illustrates the microbiocidal efficacy of solutions according to the present invention. The antimicrobial efficacy of each of various compositions for the chemical disinfection of contact lenses was evaluated. Microbial challenge inoculums were prepared using Pseudomonas aeruginosa (ATCC 9027), Staphylococcus aureus (ATCC 6538), Serratia marcescens (ATCC 13880), Candida albicans (ATCC 10231), and Fusarium solani (ATCC 36031). The test organisms were cultured on appropriate agar and the cultures were harvested using sterile DPBST (Dulbecco's Phosphate Buffered Saline plus 0.05% w/v polysorbate 80) or a suitable diluent and transferred to a suitable vessel. Spore suspensions were filtered through sterile glass wool to remove hyphal fragments. Serratia marcescens, as appropriate, was filtered (eg., through a 1.2 μ filter) to clarify the suspension. After harvesting, the suspension was centrifuged at no more than 5000× g for a maximum of 30 minutes at 20-25° C. The supernatant was poured off and resuspended in DPBST or other suitable diluent. The suspension was centrifuged a second time, and resuspended in DPBST or other suitable diluent. All challenge bacterial and fungal cell suspensions were adjusted with DPBST or other suitable diluent to 1×10^7 -10^8 cfu/mL. The appropriate cell concentration may be estimated by measuring the turbidity of the suspension, for example using a spectrophotometer at a preselected wavelength, for example 490 nm. One tube was prepared containing a minimum of 10 mL of test solution per challenge organism. Each tube of the solution to be tested was inoculated with a suspension of the test organism sufficient to provide a final count of 1.0×10^5 -10^6 cfu/mL, the volume of the inoculum not exceeding 1% of the sample volume. Dispersion of the inoculum was ensured by vortexing the sample for at least 15 seconds. The inoculated product was stored at 10-25° C. Aliquots in the amount of 1.0 mL were taken of the inoculated product for determination of viable counts after certain time periods of disinfection. The time points for the bacteria were 25, 50, 75, and 100% of the minimum disinfection time. Yeast and mold were tested at an additional timepoint of at least 400% of the minimum disinfection time. The suspension was mixed well by vortexing vigorously for at least 5 second. The 1.0 mL aliquots removed at the specified time intervals were subjected to a suitable series of decimal dilutions in validated neutralizing media. The suspensions were mixed vigorously and incubated for a suitable period of time to allow for neutralization of the microbial agent. The viable count of organisms was determined in appropriate dilutions by preparation of triplicate plates of trypticase soy (TSA) agar for bacteria and Sabouraud dextrose agar (SDA) for mold and yeast. The bacterial recovery plates were incubated at 30-35° C. for 2-4 days. The yeast was incubated at 20-30° C. for 2-4 days and mold recovery plates at 20-25° C. for 3-7 days. The average number of colony forming units was determined on countable plates. Countable plates refer to 30-300 cfu/plates for bacteria and yeast, and 8 to 80 cfu/plate for mold except when colonies are observed only for the 10^0 or 10^-1 dilution plates. The microbial reduction was then calculated at the specified time points. […] Following inoculation in a validated neutralizing broth and incubation for an appropriate period of time, the inoculum control must be between 1.0×10^5 -1.0×10^6 cfu/mL
# (§2) The solutions were evaluated based on the performance requirement referred to as the "Stand-Alone Procedure for Disinfecting Products" (hereafter the "stand-alone test") and is based on the Disinfection Efficacy Testing for contact lens care products under the Draft Premarket Notification (510(k)) Guidance Document For Contact Lens Care Products dated Apr. 1, 1996, prepared by the U.S. Food and Drug Administration, Division of Ophthalmic Devices. […]
# [2] = test system: Pseudomonas aeruginosa (ATCC 9027); test: Antimicrobial efficacy (stand-alone log reduction), P. aeruginosa; type: cell-based; conditions: for log reduction at 4 µg/mL: 4.0 ppm alexidine in ReNu MPS
# Method: as §1, §2
smiles,measurement,setting,value
"CCCCC(CC)CNC(=N)NC(=N)NCCCCCCNC(=N)NC(=N)NCC(CC)CCCC.Cl.Cl (centres unmarked) [Alexidine.2HCl, 1,1 '-hexamethylenebis(5-(2-ethylhexyl)-biguanide) dihydrochloride]",Log Reduction C. albicans,[1],1.4 log
same,log reduction at 4 ppm,"[2]; ATCC9027, 2.5 min, 4.0 ppm, aged 18 months, Exp. 1, 2.5 min, read-out: Log Reduction",2.4
same,log reduction at 4 ppm,"[2]; ATCC9027, 2.5 min, 4.0 ppm, aged 18 months, Exp. 2, 2.5 min, read-out: Log Reduction",1.9
same,log reduction at 4 ppm,"[2]; ATCC9027, 2.5 min, 4.0 ppm, aged 18 months, Exp. 3, 2.5 min, read-out: Log Reduction",2.7
same,log reduction at 1 ppm,"[2]; ATCC9027, 5 min, 1.0 ppm, read-out: Log Reduction at 5 Minutes",0.5
same,log reduction at 2 ppm,"[2]; ATCC9027, 5 min, 2.0 ppm, read-out: Log Reduction at 5 Minutes",3
same,log reduction at 3 ppm,"[2]; ATCC9027, 5 min, 3.0 ppm, read-out: Log Reduction at 5 Minutes",3.8
same,log reduction at 4 ppm,"[2]; ATCC9027, 5 min, 4.0 ppm, aged 18 months, Exp. 1, 5.0 min, read-out: Log Reduction",3.2
same,log reduction at 4 ppm,"[2]; ATCC9027, 5 min, 4.0 ppm, aged 18 months, Exp. 2, 5.0 min, read-out: Log Reduction",3.2
same,log reduction at 4 ppm,"[2]; ATCC9027, 5 min, 4.0 ppm, aged 18 months, Exp. 3, 5.0 min, read-out: Log Reduction",3.1
same,log reduction at 4 ppm,"[2]; ATCC9027, 5 min, 4.0 ppm, read-out: Log Reduction at 5 Minutes",3.7
same,log reduction at 5 ppm,"[2]; ATCC9027, 5 min, 5.0 ppm, read-out: Log Reduction at 5 Minutes",> 5
same,log reduction at 4 ppm,"[2]; ATCC9027, 0.125 h, 4.0 ppm, aged 18 months, Exp. 1, 7.5 min, read-out: Log Reduction",3.4
same,log reduction at 4 ppm,"[2]; ATCC9027, 0.125 h, 4.0 ppm, aged 18 months, Exp. 2, 7.5 min, read-out: Log Reduction",3.8
same,log reduction at 4 ppm,"[2]; ATCC9027, 0.125 h, 4.0 ppm, aged 18 months, Exp. 3, 7.5 min, read-out: Log Reduction",4.1
same,log reduction at 1 ppm,"[2]; ATCC9027, 10 min, 1.0 ppm, read-out: Log Reduction at 10 Minutes",3.2
same,log reduction at 2 ppm,"[2]; ATCC9027, 10 min, 2.0 ppm, read-out: Log Reduction at 10 Minutes",4.3
same,log reduction at 3 ppm,"[2]; ATCC9027, 10 min, 3.0 ppm, read-out: Log Reduction at 10 Minutes",> 5
same,log reduction at 4 ppm,"[2]; ATCC9027, 10 min, 4.0 ppm, aged 18 months, Exp. 1, 10.0 min, read-out: Log Reduction",> 4.8
same,log reduction at 4 ppm,"[2]; ATCC9027, 10 min, 4.0 ppm, aged 18 months, Exp. 2, 10.0 min, read-out: Log Reduction",> 4.8
same,log reduction at 4 ppm,"[2]; ATCC9027, 10 min, 4.0 ppm, aged 18 months, Exp. 3, 10.0 min, read-out: Log Reduction",4.9
same,log reduction at 4 ppm,"[2]; ATCC9027, 10 min, 4.0 ppm, read-out: Log Reduction at 10 Minutes",> 5
same,log reduction at 5 ppm,"[2]; ATCC9027, 10 min, 5.0 ppm, read-out: Log Reduction at 10 Minutes",> 5
same,log reduction at 4 ppm,"[2]; ATCC9027, 0.25 h",4
same,log reduction at 4 ppm,"[2]; ATCC9027, 0.25 h, 4.0 ppm, Ex. 7, different lot aged 18 months, 15 min, read-out: Log Reduction",4.2
same,log reduction at 4 ppm,"[2]; ATCC9027, 0.25 h, 4.0 ppm, Ex. 8, different batch aged 19 months at 25 °C, 15 min, read-out: Log Reduction",3.3
same,log reduction at 4 ppm,"[2]; ATCC9027, 0.5 h, 4.0 ppm, Ex. 6, aged 19 months at 25 °C, 30 min, read-out: Log Reduction",> 4.8
same,log reduction at 4 ppm,"[2]; ATCC9027, 0.5 h, 4.0 ppm, Ex. 7, different lot aged 18 months, 30 min, read-out: Log Reduction",> 4.8
same,log reduction at 4 ppm,"[2]; ATCC9027, 0.5 h, 4.0 ppm, Ex. 8, different batch aged 19 months at 25 °C, 30 min, read-out: Log Reduction",> 4.8
same,log reduction at 4 ppm,"[2]; ATCC9027, 0.75 h, 4.0 ppm, Ex. 6, aged 19 months at 25 °C, 45 min, read-out: Log Reduction",> 4.8
same,log reduction at 4 ppm,"[2]; ATCC9027, 0.75 h, 4.0 ppm, Ex. 7, different lot aged 18 months, 45 min, read-out: Log Reduction",> 4.8
same,log reduction at 4 ppm,"[2]; ATCC9027, 0.75 h, 4.0 ppm, Ex. 8, different batch aged 19 months at 25 °C, 45 min, read-out: Log Reduction",> 4.8
same,log reduction at 1 ppm,"[2]; ATCC9027, 1 h, 1 ppm, 1 hr, read-out: Log Reduction",> 5
same,log reduction at 2 ppm,"[2]; ATCC9027, 1 h, 2 ppm, 1 hr, read-out: Log Reduction",> 5
same,log reduction at 3 ppm,"[2]; ATCC9027, 1 h, 3 ppm, 1 hr, read-out: Log Reduction",> 5
same,log reduction at 4 µg/mL,"[2]; ATCC9027, 1 h, 1 hr",> 4.8
same,log reduction at 4 ppm,"[2]; ATCC9027, 1 h, 4 ppm, 1 hr, read-out: Log Reduction",> 5
same,log reduction at 4 ppm,"[2]; ATCC9027, 1 h, 4.0 ppm, Ex. 6, aged 19 months at 25 °C, 60 min, read-out: Log Reduction",> 4.8
same,log reduction at 4 ppm,"[2]; ATCC9027, 1 h, 4.0 ppm, Ex. 7, different lot aged 18 months, 60 min, read-out: Log Reduction",> 4.8
same,log reduction at 4 ppm,"[2]; ATCC9027, 1 h, 4.0 ppm, Ex. 8, different batch aged 19 months at 25 °C, 60 min, read-out: Log Reduction",> 4.8
same,log reduction at 5 ppm,"[2]; ATCC9027, 1 h, 5 ppm, 1 hr, read-out: Log Reduction",> 5
same,log reduction at 4 µg/mL,"[2]; ATCC9027, 2 h, 2 hr",> 4.8
same,log reduction at 4 µg/mL,"[2]; ATCC9027, 3 h, 3 hr",> 4.8
same,log reduction at 4 µg/mL,"[2]; ATCC9027, 4 h, 4 hr",> 4.8
